Results published in patent US9271978B2 (Zenith Epigenetics Corp., priority 2012, dated 2016).

How the values were obtained:
[1] = target: T1, second bromodomain of Brd2 (BRD2(2)) (Homo sapiens, UniProt P25440); experiment: Inhibition of tetra-acetylated histone H4 binding to Brd2 bromodomain 2 (TR-FRET); set-up: key: Active: Compounds with an IC50 value less than 30 μM were deemed to be active.; Not Active: Compounds with an IC50 value less than 30 μM were deemed to be active; settings: tetra-acetylated histone H4 peptide, active = IC50 <30 μM
T1 construct: made in house; host or cells: E. coli BL21 (DE3)
How it was run: (§1)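 IC50 values come from dose-response curves of the 665 nm to 620 nm TR-FRET signal decrease, measured after 2 h at room temperature. Reactions contained 200 nM E. coli-expressed His-tagged bromodomain, 25-50 nM biotinylated tetra-acetylated H4 peptide, Eu-streptavidin plus XL665 anti-His antibody, with 30 mM HEPES pH 7.4, 320 mM KF and 0.2% DMSO.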

[2] = target: T2, Brd4 bromodomain 1 (BRD4(1)) (Homo sapiens, UniProt O60885); experiment: Inhibition of tetra-acetylated histone H4 binding to Brd4 bromodomain 1 (TR-FRET); set-up: key: Active: Compounds with an IC50 value less than 30 μM were deemed to be active.; Not Active: Compounds with an IC50 value less than 30 μM were deemed to be active; settings: tetra-acetylated histone H4 peptide, active = IC50 <30 μM
T2 construct: Illustrative results with the first bromodomain of Brd4; made in house; host or cells: E. coli BL21 (DE3)
How it was run: as §1

[3] = system: c-myc; experiment: Inhibition of c-myc expression in MV4-11 cells (mRNA, real-time PCR); format: cell-based; set-up: key: Active: Compounds with an IC50 value less than 30 μM were deemed to be active.; Not Active: Compounds with an IC50 value less than 30 μM were deemed to be active; settings: Human AML MV4-11 cells, 3 h incubation
How it was run: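 Duplex RT-qPCR of c-myc against cyclophilin cDNA gave IC50 from a dose–response curve. Input was isolated mRNA from 2.5×10^4 MV4-11 cells after 3 h exposure at 37 °C to compound or 0.1% DMSO vehicle.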

[4] = system: human AML MV-4-11 (CRL-9591) cells; experiment: Inhibition of cell proliferation in MV4-11 cells; format: cell-based; set-up: key: Active: Compounds with an IC50 value less than 30 μM were deemed to be active.; Not Active: Compounds with an IC50 value less than 30 μM were deemed to be active; settings: human AML MV-4-11 cells, 72 h; active = IC50 <30 μM
How it was run: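 IC50 values come from blank-corrected proliferation relative to DMSO controls, read as 490 nm absorbance 3–4 h after CellTiter Aqueous One addition. Before that, cells seeded at 5×10^4/well were exposed for 72 h (37° C, 5% CO2) to triplicate two-fold compound dilutions spanning 30–0.2 μM.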

[5] = system: ApoA-I mRNA; experiment: Up-regulation of hApoA-1 mRNA transcription in Huh7 cells; format: cell-based, human; set-up: key: Active: Compounds with an EC170 value less than 30 μM were deemed to be active; settings: 48 h treatment, ApoA-I mRNA by real-time PCR, Active = EC170 less than 30 μM
How it was run: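 Huh7 cells treated with compound for 48 h. ApoA-I mRNA was then quantified in captured mRNA by one-step real-time RT-PCR. Fold induction calculated from Ct values relative to the matching DMSO control; EC170 is the concentration for 170% of control expression.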

[6] = system: hIL-6 mRNA; experiment: Inhibition of hIL-6 mRNA transcription in U937 cells; format: cell-based, human; set-up: key: Active: Compounds with an IC50 value less than 30 μM were deemed to be active.; Not Active: Compounds with an IC50 value less than 30 μM were deemed to be active; settings: LPS stimulation, active = IC50 <30 μM
How it was run: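 Readout is one-step real-time PCR of hIL-6 mRNA, normalized to an internal control and given as fold induction versus control. Cells: PMA (60 ng/mL, 3 days)-differentiated U937 macrophages, compound added 1 h before 1 ug/mL LPS, harvested after 3 h at 37° C.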

T1 sequence (P25440 344-453 limits assumed): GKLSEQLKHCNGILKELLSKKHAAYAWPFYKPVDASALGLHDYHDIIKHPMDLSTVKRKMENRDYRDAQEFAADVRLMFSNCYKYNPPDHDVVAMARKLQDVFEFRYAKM

Row | Structure (SMILES) | FRET activity (IC50 <30 μM) BRD2(2) [1] | FRET activity (IC50 <30 μM) BRD4(1) [2] | c-myc activity (IC50 <30 μM) [3] | Cell Proliferation activity (IC50 <30 μM) [4] | IL-6 activity (IC50 <30 μM) [6] | ApoA-1 activity (EC170 <30 μM) [5]
1 | Cc1noc(C)c1-c1ccc(=O)n(Cc2ccc(C(N)=O)cc2)c1 [Example 13, 4-((5-(3,5-Dimethylisoxazol-4-yl)-2-oxopyridin-1(2H)-yl)methyl)benzamide] | Active | Active | Not Active | Not Active | Active | Active
2 | Cc1noc(C)c1-c1ccc(=O)n(Cc2ccc3[nH]ncc3c2)c1 [Example 148, 1-((1H-Indazol-5-yl)methyl)-5-(3,5-dimethylisoxazol-4-yl)pyridin-2(1H)-one] | Active | Active | Active | Active | Active | Active
3 | COc1cc(-c2ccc(=O)n(Cc3ccccc3C#N)n2)cc(OC)c1OC [Example 118, 2-((6-Oxo-3-(3,4,5-trimethoxyphenyl)pyridazin-1(6H)-yl)methyl)benzonitrile] | Active | Active | Not Active | Active | Active | Active
4 | Cc1noc(C)c1-c1ccc(=O)n(Cc2ccc(OC(F)(F)F)cc2)c1 [Example 5, 5-(3,5-Dimethylisoxazol-4-yl)-1-(4-(trifluoromethoxy)benzyl)pyridin-2(1H)-one] | Active | Active | Active | Active | Active | Active
5 | Cc1noc(C)c1-c1ccc(=O)n(Cc2ccc(F)c(Cl)c2)c1 [Example 147, 1-(3-Chloro-4-fluorobenzyl)-5-(3,5-dimethylisoxazol-4-yl)pyridin-2(1H)-one] | Active | Active | Active | Active | Active | Active
6 | COc1cc(-c2ccc(=O)n(Cc3ccc(NC(C)=O)cc3)n2)cc(OC)c1OC [Example 82, N-(4-((6-Oxo-3-(3,4,5-trimethoxyphenyl)pyridazin-1(6H)-yl)methyl)phenyl)acetamide] | Active | Active | Not Active | Not Active | Active | Active
7 | Cc1noc(C)c1-c1cc(N)c(=O)n(Cc2ccc(Cl)c(F)c2)c1 [Example 203, 3-amino-1-(4-chloro-3-fluorobenzyl)-5-(3,5-dimethylisoxazol-4-yl)pyridin-2(1H)-one] | – | Active | Active | Active | Active | Active
8 | Cc1noc(C)c1-c1cc(N)c(=O)n(Cc2nccs2)c1 [Example 215, 3-amino-5-(3,5-dimethylisoxazol-4-yl)-1-(thiazol-2-ylmethyl)pyridin-2(1H)-one] | – | Active | Active | Active | Active | Active
9 | Cc1noc(C)c1-c1cc(Nc2cncc(F)c2)c(=O)n(Cc2ccccc2)c1 [Example 223, 1-benzyl-5-(3,5-dimethylisoxazol-4-yl)-3-((5-fluoropyridin-3-yl)amino)pyridin-2(1H)-one] | – | Active | Active | Active | Active | Active
10 | Cc1noc(C)c1-c1cc(N)c(=O)n(Cc2ccc(F)c(F)c2)c1 [Example 211, 3-amino-1-(3,4-difluorobenzyl)-5-(3,5-dimethylisoxazol-4-yl)pyridin-2(1H)-one] | – | Active | Active | Active | Active | Active
11 | Cc1noc(C)c1-c1cc(OCc2ccccc2)c(=O)n(Cc2ccccc2)c1 [Example 191, 1-benzyl-3-(benzyloxy)-5-(3,5-dimethylisoxazol-4-yl)pyridin-2(1H)-one] | – | Active | Active | Active | Not Active | Active

Continued, in another order:

Row | FRET activity (IC50 <30 μM) BRD2(2) [1] | FRET activity (IC50 <30 μM) BRD4(1) [2] | c-myc activity (IC50 <30 μM) [3] | Cell Proliferation activity (IC50 <30 μM) [4] | IL-6 activity (IC50 <30 μM) [6] | Structure (SMILES) | ApoA-1 activity (EC170 <30 μM) [5]
12 | Active | Active | Active | Active | Active | CNc1cc(-c2c(C)noc2C)cn(Cc2ccccc2)c1=O [Example 75, 1-Benzyl-5-(3,5-dimethylisoxazol-4-yl)-3-(methylamino)pyridin-2(1H)-one] | Active
13 | Active | Active | Active | Active | Active | Cc1noc(C)c1-c1cc(C)c(=O)n(Cc2ccccc2)c1 [Example 66, 1-Benzyl-5-(3,5-dimethylisoxazol-4-yl)-3-methylpyridin-2(1H)-one] | Active
14 | Active | Active | Active | Active | Active | Cc1noc(C)c1-c1ccc(=O)n(C(C)c2ccccc2)n1 (stereo not shown) [Example 19, 6-(3,5-Dimethylisoxazol-4-yl)-2-(1-phenylethyl)pyridazin-3(2H)-one] | Active
15 | Active | Active | Active | Active | Active | Cc1noc(C)c1-c1ccc(=O)n(C(C)c2ccccc2)c1 (stereo not shown) [Example 125, 5-(3,5-Dimethylisoxazol-4-yl)-1-(1-phenylethyl)pyridin-2(1H)-one] | Active
16 | Active | Active | Active | Active | Active | CCC(c1ccccc1)n1cc(-c2c(C)noc2C)ccc1=O (stereo not shown) [Example 43, 5-(3,5-Dimethylisoxazol-4-yl)-1-(1-phenylpropyl)pyridin-2(1H)-one] | Active
17 | Active | Active | Active | Active | Active | Cc1noc(C)c1-c1ccc(=O)n([C@@H](C)c2ccccc2)n1 [Example 109, (S)-6-(3,5-Dimethylisoxazol-4-yl)-2-(1-phenylethyl)pyridazin-3(2H)-one] | Active
